# Assay results as given in ChEMBL document CHEMBL4411339, “Design, synthesis and antimycobacterial activity of less lipophilic Q203 derivatives containing alkaline fused ring moieties” (Bioorg Med Chem, 2019).
# Experiments:
# [1] = Tmax in specific pathogen free ICR mouse at 25 mg/kg, po administered as single dose by HPLC analysis; type: ADME, organism-based; details: in vivo
# [2] = Acute toxicity in specific pathogen free ICR mouse at 500 mg/kg, po administered as single dose measured up to 7 days; type: organism-based; details: in vivo, 168 h
# [3] = Elimination half life in specific pathogen free ICR mouse at 25 mg/kg, po administered as single dose by HPLC analysis; type: ADME, organism-based; details: in vivo, read-out: beta t1/2 (converted)
# [4] = Cytotoxicity against African green monkey Vero cells assessed as reduction in cell viability after 72 hrs by MTT assay; type: cell-based; details: chlorocebus sabaeus
# [5] = test system: Mycobacterium tuberculosis; assay: Antimycobacterial activity against Mycobacterium tuberculosis H37Rv ATCC 27294 after 7 days by microplate alamar blue assay; type: functional; details: H37Rv ATCC 27294, 168 h
# [6] = biological target: hERG (KCNH2) (Homo sapiens, UniProt Q12809); assay: Inhibition of human ERG at 10 uM relative to control
# [7] = Cmax in specific pathogen free ICR mouse at 25 mg/kg, po administered as single dose by HPLC analysis; type: ADME, organism-based; set-up: dose 25 mg/kg, route oral; details: in vivo
# [8] = AUC (0 to infinity) in specific pathogen free ICR mouse at 25 mg/kg, po administered as single dose by HPLC analysis; type: ADME, organism-based; set-up: dose 25 mg/kg, time infinity, route oral; details: in vivo
# [9] = Aqueous solubility of the compound in pH 2 0.01M HCl incubated under stirred condition for 12 hrs by UV-HPLC analysis; type: physicochemical
# Sequence of hERG (KCNH2) (Q12809 whole entry): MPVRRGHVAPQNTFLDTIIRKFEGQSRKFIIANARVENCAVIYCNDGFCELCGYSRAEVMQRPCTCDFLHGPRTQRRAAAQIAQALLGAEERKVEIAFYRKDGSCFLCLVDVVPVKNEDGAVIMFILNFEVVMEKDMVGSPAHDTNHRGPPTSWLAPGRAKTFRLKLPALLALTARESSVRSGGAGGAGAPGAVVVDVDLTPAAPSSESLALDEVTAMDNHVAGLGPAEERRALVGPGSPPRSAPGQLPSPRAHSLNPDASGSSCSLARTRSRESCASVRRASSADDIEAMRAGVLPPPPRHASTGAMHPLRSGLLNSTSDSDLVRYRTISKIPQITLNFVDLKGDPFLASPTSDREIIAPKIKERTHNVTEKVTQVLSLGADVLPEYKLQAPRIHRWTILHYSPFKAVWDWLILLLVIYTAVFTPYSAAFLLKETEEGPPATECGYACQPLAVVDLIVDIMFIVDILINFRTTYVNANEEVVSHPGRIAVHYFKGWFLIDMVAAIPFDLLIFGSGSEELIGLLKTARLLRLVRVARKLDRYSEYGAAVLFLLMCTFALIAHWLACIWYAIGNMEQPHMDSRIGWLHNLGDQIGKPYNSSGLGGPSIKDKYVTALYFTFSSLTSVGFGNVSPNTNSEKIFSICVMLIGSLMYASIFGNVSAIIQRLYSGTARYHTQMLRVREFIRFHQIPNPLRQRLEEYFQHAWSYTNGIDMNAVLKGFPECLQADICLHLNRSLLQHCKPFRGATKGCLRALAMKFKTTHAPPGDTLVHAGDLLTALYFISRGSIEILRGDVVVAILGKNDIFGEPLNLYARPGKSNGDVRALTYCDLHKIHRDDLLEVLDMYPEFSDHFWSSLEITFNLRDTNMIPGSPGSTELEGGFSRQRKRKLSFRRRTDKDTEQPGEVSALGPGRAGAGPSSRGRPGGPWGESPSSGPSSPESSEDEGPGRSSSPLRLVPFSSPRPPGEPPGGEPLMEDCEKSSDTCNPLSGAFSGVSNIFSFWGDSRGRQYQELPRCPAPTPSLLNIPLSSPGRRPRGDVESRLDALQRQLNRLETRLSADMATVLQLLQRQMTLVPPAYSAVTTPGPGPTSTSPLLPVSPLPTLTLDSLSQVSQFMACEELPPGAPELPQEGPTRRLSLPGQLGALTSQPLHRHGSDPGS
SMILES,Tmax [1],Activity [2],half-life [3],CC50 at 72 h [4],MIC [5],inhibition at 10 µM [6],Cmax [7],AUC(0-inf) [8],solubility at 12 h [9]
CCc1nc2ccc(Cl)cn2c1C(=O)NCc1ccc2c(c1)CCN(Cc1ccc(C(F)(F)F)cn1)C2,0.583 h,Non-Toxic,3.2 h,> 64 µg/mL,0.053 µM,25%,8060 ng/mL,25600 ng·h/mL,
CCc1nc2ccc(Cl)cn2c1C(=O)NCc1ccc2c(c1)CCN(Cc1cc(F)cc(F)c1)C2,,,,14 µg/mL,< 0.035 µM,,,,
CO[C@H]1/C=C/O[C@@]2(C)Oc3c(C)c(O)c4c(O)c(c(/C=N/N5CCN(C)CC5)c(O)c4c3C2=O)NC(=O)/C(C)=C\C=C\[C@H](C)[C@H](O)[C@@H](C)[C@@H](O)[C@@H](C)[C@H](OC(C)=O)[C@@H]1C [RIFAMPIN],,,,,0.12 µM,,,,
CCc1nc2ccc(Cl)cn2c1C(=O)NCc1ccc2c(c1)CCN(Cc1ccc(C(F)(F)F)cc1)C2,0.25 h,Non-Toxic,4.98 h,> 64 µg/mL,0.13 µM,50%,3000 ng/mL,7800 ng·h/mL,
CCc1nc2cc(Cl)ccn2c1C(=O)NCc1ccc2c(c1)CCN(Cc1ccc(C)cc1)C2,,,,,0.27 µM,,,,
CCc1nc2ccc(Cl)cn2c1C(=O)NCc1ccc2c(c1)CCN(CCc1ccc(C(F)(F)F)cn1)C2,0.25 h,Non-Toxic,5.39 h,48 µg/mL,< 0.035 µM,13%,22100 ng/mL,54900 ng·h/mL,2100 µg/mL
CCc1nc2ccc(Cl)cn2c1C(=O)NCc1ccc2c(c1)CCN(Cc1ccc(C(C)(C)C)cc1)C2,0.5 h,Non-Toxic,9.35 h,37 µg/mL,< 0.035 µM,31%,1080 ng/mL,4210 ng·h/mL,
CCc1nc2ccc(Cl)cn2c1C(=O)NCc1ccc2c(c1)CCN(Cc1ccc(OC)cc1)C2,,,,2 µg/mL,< 0.035 µM,,,,
CCc1nc2cc(Cl)ccn2c1C(=O)NCc1ccc2c(c1)CCN(Cc1ccc(Br)cc1)C2,,,,,0.31 µM,,,,
CCc1nc2cc(Cl)ccn2c1C(=O)NCc1ccc2c(c1)CCN(Cc1ccc(C(C)(C)C)cc1)C2,,,,14 µg/mL,0.12 µM,,,,
CCc1nc2ccc(Cl)cn2c1C(=O)NCc1ccc2c(c1)CCN(Cc1ccc(F)cc1)C2,,,,> 64 µg/mL,< 0.035 µM,60%,,,
O=c1nc(N2CCN(CC3CCCCC3)CC2)sc2c([N+](=O)[O-])cc(C(F)(F)F)cc12 [MACOZINONE],,,,31 µg/mL,< 0.035 µM,41%,,1600 ng·h/mL,1130 µg/mL
CCc1nc2ccc(Cl)cn2c1C(=O)NCc1ccc2c(c1)CN(Cc1ccc(OC(F)(F)F)cc1)C2,0.417 h,Non-Toxic,5.13 h,> 64 µg/mL,0.051 µM,50%,1310 ng/mL,3600 ng·h/mL,
NNC(=O)c1ccncc1 [ISONIAZID],,,,,0.27 µM,,,,
CCc1nc2ccc(Cl)cn2c1C(=O)NCc1ccc2c(c1)CCN(Cc1ccc(Br)cc1)C2,,,,30 µg/mL,< 0.035 µM,,,,
CCc1nc2cc(Cl)ccn2c1C(=O)NCc1ccc2c(c1)CCN(Cc1cc(F)cc(F)c1)C2,0.667 h,Non-Toxic,9.06 h,48 µg/mL,< 0.035 µM,48%,5380 ng/mL,24100 ng·h/mL,
CCc1nc2ccc(Cl)cn2c1C(=O)NCc1ccc2c(c1)CCN(Cc1ccc(C)cc1)C2,,,,51 µg/mL,< 0.035 µM,54%,,,
CCc1nc2cc(Cl)ccn2c1C(=O)NCc1ccc2c(c1)CCN(CCc1ccc(C(F)(F)F)cn1)C2,,,,25 µg/mL,< 0.035 µM,,,,
CCc1nc2cc(Cl)ccn2c1C(=O)NCc1ccc2c(c1)CCN(Cc1ccc([N+](=O)[O-])o1)C2,,,,> 64 µg/mL,< 0.035 µM,71%,,,
CCc1nc2ccc(Cl)cn2c1C(=O)NCc1ccc(N2CCC(c3ccc(OC(F)(F)F)cc3)CC2)cc1 [TELACEBEC],2.67 h,,18.7 h,> 64 µg/mL,< 0.035 µM,50%,3780 ng/mL,46600 ng·h/mL,79 µg/mL
CCc1nc2cc(Cl)ccn2c1C(=O)NCc1ccc2c(c1)CCN(Cc1ccc(C(F)(F)F)cc1)C2,,,,,0.91 µM,,,,
CCc1nc2ccc(Cl)cn2c1C(=O)NCc1ccc2c(c1)CCN(CCc1ccc(C(F)(F)F)nc1)C2,0.25 h,Non-Toxic,1.79 h,> 64 µg/mL,0.047 µM,44%,1630 ng/mL,1480 ng·h/mL,
CCc1nc2cc(Cl)ccn2c1C(=O)NCc1ccc2c(c1)CCN(CCc1ccc(C(F)(F)F)nc1)C2,,,,,0.19 µM,,,,
CCc1nc2cc(Cl)ccn2c1C(=O)NCc1ccc2c(c1)CCN(Cc1ccc(OC)cc1)C2,,,,32 µg/mL,< 0.035 µM,64%,,,
CCc1nc2ccc(Cl)cn2c1C(=O)NCc1ccc2c(c1)CCN(Cc1ccc(C(F)(F)F)nc1)C2,,,,7 µg/mL,0.097 µM,,,,
CCc1nc2ccc(Cl)cn2c1C(=O)NCc1ccc2c(c1)CN(C(C)c1ccc(OC(F)(F)F)cc1)C2 (stereo not given),0.333 h,Non-Toxic,9.08 h,> 64 µg/mL,< 0.035 µM,50%,3990 ng/mL,7610 ng·h/mL,
CCc1nc2ccc(Cl)cn2c1C(=O)NCc1ccc2c(c1)CCN(Cc1ccc([N+](=O)[O-])o1)C2,,,,,0.25 µM,,,,
CCc1nc2cc(Cl)ccn2c1C(=O)NCc1ccc2c(c1)CCN(Cc1ccc(F)cc1)C2,,,,,0.19 µM,,,,
